In publication PMC3674108 (Journal of the American Chemical Society, 2013):
Entries after “also recorded” stand apart in the source; their conditions may differ. Read-outs that look alike come from different tables or passages of the source. Marks after values point to notes of the source that are not given here.

Experiments:
[1] = biological target: T1, ecTSase (Escherichia coli, UniProt P0A884); assay: Noncompetitive KIE experiments; format: biochemical; settings: w/ 50 mM MgCl2, 25 °C; for KMCH2H4folate / kcat: 100 μM dUMP, pH 7.5
[2] = biological target: ecTSase-dUMP-Mg^2+ complex; format: binding, Escherichia coli; settings: read-out: KdCH4H4fol; w/ 50 mM MgCl2, 25 °C, calculated using Eq 5
[3] = biological target: Escherichia coli TSase (ecTSase) (Escherichia coli, UniProt P0A884); assay: Steady-state initial velocities of ecTSase; format: biochemical; settings: for Hill coefficient x (inhibitory binding mode): Eq 3
[4] = biological target: ecTSase-dUMP complex; format: binding, Escherichia coli; settings: read-out: KdCH4H4fol; w/o Mg^2+, 25 °C, calculated using Eq 5
[5] = biological target: T2, apo-ecTSase (Escherichia coli, UniProt P0A884); settings: read-out: Kd of Mg^2+ for apo-ecTSase; 25 °C, pH 7.5, one-site binding fit
[6] = biological target: T1, ecTSase
[7] = biological target: ecTSase-Mg^2+ complex (Escherichia coli, UniProt P0A884); assay: Fluorescence assay, dUMP titration into ecTSase pre-incubated with MgCl2; format: binding
[8] = biological target: T2, apo-ecTSase; assay: biochemical

Escherichia coli TSase (ecTSase), sequence (P0A884 whole entry): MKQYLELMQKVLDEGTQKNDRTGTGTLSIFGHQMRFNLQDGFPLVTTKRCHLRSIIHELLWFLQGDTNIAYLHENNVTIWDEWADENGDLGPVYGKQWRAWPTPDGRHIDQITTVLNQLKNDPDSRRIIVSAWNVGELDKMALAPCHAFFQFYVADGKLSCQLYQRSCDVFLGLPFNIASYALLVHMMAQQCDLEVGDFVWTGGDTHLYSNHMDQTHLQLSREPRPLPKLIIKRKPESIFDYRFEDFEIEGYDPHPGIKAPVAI
T1 sequence (P0A884 whole entry): as above
T2 sequence (P0A884 whole entry): as above
ecTSase-Mg^2+ complex, sequence (P0A884 whole entry, one chain of several): as the sequence (P0A884 whole entry) above

## [2H][C@]12CNc3nc(N)[nH]c(=O)c3N1CN(c1ccc(C(=O)N[C@@H](CCC(=O)O)C(=O)O)cc1)C2 [6R-D-CH2H4fol]
[1]
  KMCH2H4folate: 19 ± 5 µM
  kcat: 2.3 ± 0.2 s⁻¹

## Nc1nc2c(c(=O)[nH]1)N1CN(c3ccc(C(=O)N[C@@H](CCC(=O)O)C(=O)O)cc3)CC1CN2 (stereo partly drawn) [CH2H4fol, N^5,N^10-methylene-5,6,7,8-tetrahydrofolate]
[1]
  KMCH2H4folate: 15 ± 1 µM
  kcat: 8.7 ± 0.2 s⁻¹
[2]
  Kd: 8 ± 1 µM
[3]; absence of Mg^2+, best-fit integer
  Hill coefficient x (inhibitory binding mode): 2
[3]; both absence and presence of Mg^2+, best-fit integer, Eq 2
  Hill coefficient n (productive binding mode): 1
[3]; presence of Mg^2+ (50 mM MgCl2), best-fit integer
  Hill coefficient x (inhibitory binding mode): 1
[3]; w/ 50 mM MgCl2, 25 °C, 100 μM dUMP
  KMCH4H4fol: 15 ± 1 µM
[3]; w/o Mg^2+, 25 °C
  KMCH4H4fol: 17 ± 2 µM
[4]
  Kd: 17 ± 2 µM

## [Mg+2] [Mg^2+]
[1]
  observed H/D KIE on kcat (^Dkcat): 3.8 ± 0.3
[5]
  Kd: 27000 ± 7000 µM
[3]; 50 mM MgCl2, 5-35 °C
  increase of kcat (hydride transfer rate) by Mg^2+: ca. 7 fold
[3]; 50 mM MgCl2, 25 °C
  increase of the Michaelis constant of dUMP by Mg^2+: ca. 5 fold
  reduction of activation free energy ΔG^‡ of kcat by Mg^2+: ca. 1 kcal/mol
  reduction of entropy of activation TΔS^‡ of kcat by Mg^2+: ca. 1 kcal/mol
[3]; w/ 50 mM MgCl2
  -TΔS^‡ at 25 °C from fitting kcat to the Eyring equation: 12.8 ± 0.2 kcal/mol
[3]; w/ 50 mM MgCl2, 5-35 °C
  ΔH^‡ from fitting kcat to the Eyring equation: 3.4 ± 0.2 kcal/mol
[3]; w/ 50 mM MgCl2, 25 °C
  ΔG^‡ from fitting kcat to the Eyring equation: 16.2 ± 0.4 kcal/mol
[6]; w/ 50 mM MgCl2
  AH/AT (isotope effect on the Arrhenius prefactors of the hydride transfer): 6.6 ± 1.3
[6]; w/ 50 mM MgCl2, 25 °C, competitive KIE experiment
  intrinsic H/D KIE (^Dk) on the hydride transfer: 3.9 ± 0.2^a

## [Ca+2].[Cl-].[Cl-] [CaCl2]
[3]; 50 mM CaCl2, 25 °C
  effect on initial velocities (ionic strength control): no difference; also recorded: no effects on the initial velocities

## O=c1ccn([C@H]2C[C@H](O)[C@@H](COP(=O)(O)O)O2)c(=O)[nH]1 [dUMP, 2’-deoxyuridine-5’-monophosphate]
[7]
  Kd: 14 ± 2 µM
[8]
  Kd: 8.5 ± 0.9 µM
[3]; w/ 50 mM MgCl2, 25 °C, 150 μM CH2H4fol
  KMdUMP: 2.4 ± 0.2 µM
[3]; w/o Mg^2+, 25 °C
  KMdUMP: 0.5 ± 0.1 µM
